This passage reports IC50 results from patent US12509447B2, “Small molecule compound” (Technoderma Medicines Pte Ltd, priority 2019, dated 2025).

Bounds are passed on as bounds.

What all share (assay type): biochemical
Test [1] deals with T1, JAK3 (Homo sapiens, UniProt P52333).
T1 sequence (P52333 1-1124): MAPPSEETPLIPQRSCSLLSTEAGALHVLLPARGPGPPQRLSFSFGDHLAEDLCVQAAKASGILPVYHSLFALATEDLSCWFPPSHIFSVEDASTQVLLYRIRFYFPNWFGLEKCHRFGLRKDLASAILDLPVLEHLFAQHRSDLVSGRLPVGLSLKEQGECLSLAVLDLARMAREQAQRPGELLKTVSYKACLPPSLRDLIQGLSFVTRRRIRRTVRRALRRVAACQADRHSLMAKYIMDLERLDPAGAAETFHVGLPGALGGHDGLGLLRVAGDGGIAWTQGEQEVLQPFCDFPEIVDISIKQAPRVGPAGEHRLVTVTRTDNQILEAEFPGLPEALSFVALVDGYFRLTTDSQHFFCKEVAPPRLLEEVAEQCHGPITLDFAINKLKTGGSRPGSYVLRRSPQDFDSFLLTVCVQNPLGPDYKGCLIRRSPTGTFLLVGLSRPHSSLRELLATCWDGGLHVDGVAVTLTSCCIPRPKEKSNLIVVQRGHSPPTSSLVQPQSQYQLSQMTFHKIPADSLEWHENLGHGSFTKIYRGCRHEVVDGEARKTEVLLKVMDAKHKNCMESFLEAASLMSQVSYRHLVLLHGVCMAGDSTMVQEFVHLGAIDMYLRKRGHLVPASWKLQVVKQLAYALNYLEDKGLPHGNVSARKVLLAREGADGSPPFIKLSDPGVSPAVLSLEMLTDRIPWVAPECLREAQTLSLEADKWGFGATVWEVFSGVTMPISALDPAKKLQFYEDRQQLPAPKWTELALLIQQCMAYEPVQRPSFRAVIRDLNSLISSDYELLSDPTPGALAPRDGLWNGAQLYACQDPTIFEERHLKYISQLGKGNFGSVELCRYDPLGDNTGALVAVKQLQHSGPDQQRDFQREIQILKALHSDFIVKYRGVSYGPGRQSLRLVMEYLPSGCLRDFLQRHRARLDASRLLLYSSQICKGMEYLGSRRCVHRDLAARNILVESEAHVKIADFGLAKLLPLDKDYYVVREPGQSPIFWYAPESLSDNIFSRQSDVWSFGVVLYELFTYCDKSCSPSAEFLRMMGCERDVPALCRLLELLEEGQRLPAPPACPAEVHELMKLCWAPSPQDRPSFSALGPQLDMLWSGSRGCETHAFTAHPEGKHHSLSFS
Briefly: Inhibition of JAK kinase activity, EZ Reader microfluidic phosphorylation of peptide substrate: JAK3. The note with it: JAK3 kinase 1 nM; highest final concentration 10 μM, 1:3 serial dilution, 8 points, duplicates. In a few lines: (§1)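 Microfluidic mobility-shift assay reading fluorescent peptide substrate and product; kinases at 20 nM (JAK1) or 1 nM (JAK2, JAK3, Tyk2) in pH 7.4 HEPES with 10 mM MgCl2, run at room temperature to 20-30% conversion, then stopped with EDTA. Compounds tested from 10 μM top, 1:3 over 8 points in duplicate; IC50 fitted from % conversion.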

Test [2] addresses JAK2 (Homo sapiens, UniProt O60674). Briefly: Inhibition of JAK kinase activity, EZ Reader microfluidic phosphorylation of peptide substrate: JAK2. The note with it: JAK2 kinase 1 nM; highest final concentration 10 μM, 1:3 serial dilution, 8 points, duplicates. In a few lines:
as §1

Test [3] deals with Tyk2 (Homo sapiens, UniProt P29597). Briefly: Inhibition of JAK kinase activity, EZ Reader microfluidic phosphorylation of peptide substrate: Tyk2. The conditions noted are these: Tyk2 kinase 1 nM; highest final concentration 10 μM, 1:3 serial dilution, 8 points, duplicates. In a few lines: as §1
Chain of Tyk2 (P29597 whole entry): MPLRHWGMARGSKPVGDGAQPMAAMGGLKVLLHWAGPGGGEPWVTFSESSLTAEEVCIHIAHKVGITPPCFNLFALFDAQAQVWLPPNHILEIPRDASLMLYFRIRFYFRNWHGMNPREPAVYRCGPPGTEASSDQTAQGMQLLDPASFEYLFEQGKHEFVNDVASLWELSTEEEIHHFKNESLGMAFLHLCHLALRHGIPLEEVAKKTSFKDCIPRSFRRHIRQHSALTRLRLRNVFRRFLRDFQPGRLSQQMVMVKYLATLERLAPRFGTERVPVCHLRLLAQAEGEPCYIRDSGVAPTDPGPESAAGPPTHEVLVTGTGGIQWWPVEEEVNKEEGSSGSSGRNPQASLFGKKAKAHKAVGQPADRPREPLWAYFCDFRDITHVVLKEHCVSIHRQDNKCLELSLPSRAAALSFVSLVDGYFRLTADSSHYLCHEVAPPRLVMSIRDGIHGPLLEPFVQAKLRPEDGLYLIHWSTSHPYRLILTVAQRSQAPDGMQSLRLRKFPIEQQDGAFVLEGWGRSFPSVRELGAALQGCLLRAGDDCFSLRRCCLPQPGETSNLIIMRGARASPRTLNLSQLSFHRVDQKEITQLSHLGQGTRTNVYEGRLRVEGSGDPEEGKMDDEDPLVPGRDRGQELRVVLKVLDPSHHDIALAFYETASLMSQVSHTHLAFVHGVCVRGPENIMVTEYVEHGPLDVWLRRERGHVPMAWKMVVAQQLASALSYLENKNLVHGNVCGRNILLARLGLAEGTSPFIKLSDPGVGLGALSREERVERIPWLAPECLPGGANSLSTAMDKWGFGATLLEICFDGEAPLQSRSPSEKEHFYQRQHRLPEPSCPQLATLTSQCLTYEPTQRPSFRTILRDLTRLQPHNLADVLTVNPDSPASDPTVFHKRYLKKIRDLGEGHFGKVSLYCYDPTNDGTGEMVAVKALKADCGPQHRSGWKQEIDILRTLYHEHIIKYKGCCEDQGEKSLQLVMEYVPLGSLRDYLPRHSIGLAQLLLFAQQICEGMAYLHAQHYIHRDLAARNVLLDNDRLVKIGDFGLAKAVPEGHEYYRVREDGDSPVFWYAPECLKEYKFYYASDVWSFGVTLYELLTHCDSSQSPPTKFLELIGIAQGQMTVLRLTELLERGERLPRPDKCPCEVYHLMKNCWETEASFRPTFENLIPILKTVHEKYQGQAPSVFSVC
The target in test [4] is JAK1 (Homo sapiens, UniProt P23458). Briefly: Inhibition of JAK kinase activity, EZ Reader microfluidic phosphorylation of peptide substrate: JAK1. The note with it: JAK1 kinase 20 nM; highest final concentration 10 μM, 1:3 serial dilution, 8 points, duplicates. In a few lines:
as §1

Chain of JAK2 (O60674 whole entry): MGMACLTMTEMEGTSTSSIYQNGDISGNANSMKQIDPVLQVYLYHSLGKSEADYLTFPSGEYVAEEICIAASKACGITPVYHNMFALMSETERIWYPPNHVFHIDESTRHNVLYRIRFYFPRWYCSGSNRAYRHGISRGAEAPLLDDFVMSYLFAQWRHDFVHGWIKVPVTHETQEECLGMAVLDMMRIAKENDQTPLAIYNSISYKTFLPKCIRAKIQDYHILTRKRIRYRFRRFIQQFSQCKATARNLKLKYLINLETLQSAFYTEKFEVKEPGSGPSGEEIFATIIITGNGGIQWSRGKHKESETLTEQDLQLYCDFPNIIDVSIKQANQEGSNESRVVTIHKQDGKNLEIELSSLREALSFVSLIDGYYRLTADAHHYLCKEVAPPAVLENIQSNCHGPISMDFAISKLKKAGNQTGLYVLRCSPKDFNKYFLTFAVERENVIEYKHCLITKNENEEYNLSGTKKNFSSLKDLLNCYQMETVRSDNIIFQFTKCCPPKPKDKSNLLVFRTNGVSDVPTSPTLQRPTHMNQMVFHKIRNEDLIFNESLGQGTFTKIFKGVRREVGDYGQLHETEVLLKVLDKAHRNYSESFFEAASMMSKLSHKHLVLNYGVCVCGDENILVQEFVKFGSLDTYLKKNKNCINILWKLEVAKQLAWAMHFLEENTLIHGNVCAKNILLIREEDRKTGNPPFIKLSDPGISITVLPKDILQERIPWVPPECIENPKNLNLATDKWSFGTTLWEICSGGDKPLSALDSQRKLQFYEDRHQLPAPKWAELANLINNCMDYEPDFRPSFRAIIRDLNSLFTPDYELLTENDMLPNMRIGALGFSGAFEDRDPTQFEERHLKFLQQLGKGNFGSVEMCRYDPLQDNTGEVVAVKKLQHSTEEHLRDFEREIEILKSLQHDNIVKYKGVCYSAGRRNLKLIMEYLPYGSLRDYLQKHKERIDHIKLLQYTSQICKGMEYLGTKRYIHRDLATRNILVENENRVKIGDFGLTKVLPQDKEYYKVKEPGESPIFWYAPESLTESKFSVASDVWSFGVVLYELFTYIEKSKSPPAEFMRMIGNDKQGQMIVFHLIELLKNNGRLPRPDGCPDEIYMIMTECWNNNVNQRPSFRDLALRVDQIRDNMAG
Chain of JAK1 (P23458 whole entry): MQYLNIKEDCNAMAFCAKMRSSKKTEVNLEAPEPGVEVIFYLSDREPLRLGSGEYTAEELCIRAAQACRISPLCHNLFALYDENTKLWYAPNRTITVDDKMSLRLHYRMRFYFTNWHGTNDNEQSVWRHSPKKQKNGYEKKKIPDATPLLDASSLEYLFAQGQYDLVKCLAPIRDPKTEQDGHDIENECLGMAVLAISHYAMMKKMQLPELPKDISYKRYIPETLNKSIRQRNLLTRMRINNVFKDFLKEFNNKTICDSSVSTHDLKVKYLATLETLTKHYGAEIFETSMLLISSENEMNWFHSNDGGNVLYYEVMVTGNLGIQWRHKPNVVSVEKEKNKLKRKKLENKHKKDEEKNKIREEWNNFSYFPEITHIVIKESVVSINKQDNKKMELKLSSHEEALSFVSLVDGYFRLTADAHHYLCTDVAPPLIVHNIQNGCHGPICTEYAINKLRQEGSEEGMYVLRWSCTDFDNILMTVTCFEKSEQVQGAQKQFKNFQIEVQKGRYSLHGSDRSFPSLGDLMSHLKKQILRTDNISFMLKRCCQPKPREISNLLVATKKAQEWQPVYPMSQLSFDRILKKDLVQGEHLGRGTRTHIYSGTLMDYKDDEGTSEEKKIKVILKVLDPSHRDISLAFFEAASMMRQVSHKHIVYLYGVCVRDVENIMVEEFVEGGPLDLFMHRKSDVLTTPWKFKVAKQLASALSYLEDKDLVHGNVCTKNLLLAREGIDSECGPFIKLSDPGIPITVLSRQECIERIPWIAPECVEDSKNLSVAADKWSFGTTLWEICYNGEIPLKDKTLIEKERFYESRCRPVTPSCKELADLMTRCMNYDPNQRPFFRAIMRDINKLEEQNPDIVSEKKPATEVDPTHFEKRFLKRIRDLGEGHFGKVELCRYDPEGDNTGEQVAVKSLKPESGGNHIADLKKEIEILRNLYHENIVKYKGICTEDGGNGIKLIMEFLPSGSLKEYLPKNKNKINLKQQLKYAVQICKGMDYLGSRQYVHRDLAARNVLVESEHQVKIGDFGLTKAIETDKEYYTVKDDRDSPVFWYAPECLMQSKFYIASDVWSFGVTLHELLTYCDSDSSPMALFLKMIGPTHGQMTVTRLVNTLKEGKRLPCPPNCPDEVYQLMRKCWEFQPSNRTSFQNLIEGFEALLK

Consider `CCCS(=O)(=O)N1CC(CC#N)(n2ccc(-c3ccnc(Nc4cnn(C)c4)n3)c2)C1` [TDM-180785, 2-(3-(3-(2-((1-methyl-1H-pyrazol-4-yl)amino)pyrimidin-4-yl)-1H-pyrrol-1-yl)-1-(propylsulfonyl)azetidinpyridin-3-yl)acetonitrile], for which the IC50 in test [1] is ≥ 10 µM; in test [2], 0.1 to 1 µM; in test [3] it was 0.1 to 1 µM; in test [4], 0.1 to 1 µM.

Regarding `CCCS(=O)(=O)N1CC(CC#N)(n2cc(-c3ccnc(Nc4cnn(C)c4)n3)cn2)C1` [TDM-180794, 2-(3-(4-(2-((1-methyl-1H-pyrazol-4-yl)amino)pyrimidin-4-yl)-1H-pyrazol-1-yl)-1-(propylsulfonyl)azacyclobutanpyridin-3-yl)acetonitrile], the IC50 in test [1] fell in the range of 1 to 10 µM; in test [2] it was 0.1 to 1 µM; in test [3], 0.1 to 1 µM; in test [4], 0.1 to 1 µM.

Take `Cn1cc(Nc2nccc(-c3cnn(C4(CC#N)CN(S(=O)(=O)Cc5ccccc5)C4)c3)n2)cn1` [TDM-180795, 2-(1-(benzylsulfonyl)-3-(4-(2-((1-methyl-1H-pyrazol-4-yl)amino)pyrimidin-4-yl)-1H-pyrazol-1-yl)azetidinpyridin-3-yl)acetonitrile]: the half-inhibitory concentration (IC50) in test [1] was ≥ 10 µM; in test [2], 0.1 to 1 µM; in test [3], 0.1 to 1 µM; in test [4], 1 to 10 µM.

With `CCOCCS(=O)(=O)N1CC(CC#N)(n2cc(-c3ccnc(Nc4cnn(C)c4)n3)cn2)C1` [TDM-180796, 2-(1-((2-ethoxyethyl)sulfonyl)-3-(4-(2-((1-methyl-1H-pyrazol-4-yl)amino)pyrimidin-4-yl)-1H-pyrazol-1-yl)azetidin-3-yl)acetonitrile], the IC50 in test [1] is ≥ 10 µM; in test [2] it was 0.1 to 1 µM; in test [3], 0.1 to 1 µM; in test [4], 1 to 10 µM.

For `Cn1cc(Nc2nccc(-c3cnn(C4(CC#N)CN(S(=O)(=O)C5CCOCC5)C4)c3)n2)cn1` [TDM-180797, 2-(3-(4-(2-((1-methyl-1H-pyrazol-4-yl)amino)pyrimidin-4-yl)-1H-pyrazol-1-yl)-1-((tetrahydro-2H-pyran-4-yl)sulfonyl)azetidin-3-yl)acetonitrile], the IC50 was ≥ 10 µM in test [1], 0.1 to 1 µM in test [2], 0.1 to 1 µM in test [3] and 0.1 to 1 µM in test [4].

`C=CCS(=O)(=O)N1CC(CC#N)(n2cc(-c3ccnc(Nc4cnn(C)c4)n3)cn2)C1` [TDM-180800, 2-(1-(allylsulfonyl)-3-(4-(2-((1-methyl-1H-pyrazol-4-yl)amino)pyrimidin-4-yl)-1H-pyrazol-1-yl)azetidin-3-yl)acetonitrile]: the IC50 is 1 to 10 µM in test [1], 0.1 to 1 µM in test [2], 0.1 to 1 µM in test [3] and 0.1 to 1 µM in test [4].

With `CCCCS(=O)(=O)N1CC(CC#N)(n2cc(-c3ccnc(Nc4cnn(C)c4)n3)cn2)C1` [TDM-180807, 2-(1-(butylsulfonyl)-3-(4-(2-((1-methyl-1H-pyrazol-4-yl)amino)pyrimidin-4-yl)-1H-pyrazol-1-yl)azetidin-3-yl)acetonitrile], the IC50 was ≥ 10 µM in test [1], 0.1 to 1 µM in test [2], 0.1 to 1 µM in test [3] and 1 to 10 µM in test [4].

Take `Cn1cc(Nc2nccc(-c3cnn(C4(CC#N)CN(S(=O)(=O)CCC(F)(F)F)C4)c3)n2)cn1` [TDM-180808, 2-(3-(4-(2-((1-methyl-1H-pyrazol-4-yl)amino)pyrimidin-4-yl)-1H-pyrazol-1-yl)-1-((3,3,3-trifluoropropyl)sulfonyl)azetidin-3-yl)acetonitrile]: the IC50 was in the range of 1 to 10 µM in test [1], 0.1 to 1 µM in test [2], 0.1 to 1 µM in test [3] and 0.1 to 1 µM in test [4].

Turning to `CC(=O)N1CCN(c2ccc(-c3ccnc(Nc4cnn(C)c4)n3)cc2)CC1` [TDM-180827, 1-(4-(4-(2-((1-methyl-1H-pyrazol-4-yl)amino)pyrimidin-4-yl)phenyl)piperazin-1-yl)ethan-1-one], the IC50 in test [1] is ≥ 10 µM; in test [2], 0.1 to 1 µM; in test [3], 1 to 10 µM; in test [4], 1 to 10 µM.

For `CN1CCN(c2ccc(-c3ccnc(Nc4cnn(C)c4)n3)cc2)CC1` [TDM-180828, N-(1-methyl-1H-pyrazol-4-yl)-4-(4-(4-methylpiperazin-1-yl)phenyl)pyrimidin-2-amine], the concentration for half-maximal inhibition (IC50) in test [1] is ≥ 10 µM; in test [2], 1 to 10 µM; in test [3], 1 to 10 µM; in test [4] it was 1 to 10 µM.

On to `Cn1cc(Nc2nccc(-c3ccn(C4(CC#N)CN(S(=O)(=O)CCCF)C4)c3)n2)cn1` [TDM-180854, 2-(1-((3-fluoropropyl)sulfonyl)-3-(3-(2-((1-methyl-1H-pyrazol-4-yl)amino)pyrimidin-4-yl)-1H-pyrrol-1-yl)azetidin-3-yl)acetonitrile], for which the IC50 in test [1] is 1 to 10 µM; in test [2], < 0.1 µM; in test [3], 0.1 to 1 µM; in test [4] it was 0.1 to 1 µM.

For `Cn1cc(Nc2nccc(-c3ccn(C4(CC#N)CN(S(=O)(=O)C5CCOCC5)C4)c3)n2)cn1` [TDM-180855, 2-(3-(3-(2-((1-methyl-1H-pyrazol-4-yl)amino)pyrimidin-4-yl)-1H-pyrrol-1-yl)-1-((tetrahydro-2H-pyran-4-yl)sulfonyl)azetidin-3-yl)acetonitrile], the IC50 in test [1] fell in the range of 1 to 10 µM; in test [2], 0.1 to 1 µM; in test [3] it was 0.1 to 1 µM; in test [4] it was 0.1 to 1 µM.

A word on the IC50: it is the concentration at which inhibition is half-maximal. Read a high IC50 as lower potency.
